These results are taken from article PMC8225760, “Residue 6.43 defines receptor function in class F GPCRs” (Nature Communications, 2021).

Substitutions are numbered along the chain they refer to.

Holding throughout (assay type): cell-based
Assay [1] addresses T1, FZD6 (HiBiT-FZD6; FZD6-Nluc) (Homo sapiens, UniProt O60353).
T1 construct: full-length receptor; expressed in deltaSMO HEK293A cells; UniProt id given for the homology model
T1 sequence (O60353 19-706): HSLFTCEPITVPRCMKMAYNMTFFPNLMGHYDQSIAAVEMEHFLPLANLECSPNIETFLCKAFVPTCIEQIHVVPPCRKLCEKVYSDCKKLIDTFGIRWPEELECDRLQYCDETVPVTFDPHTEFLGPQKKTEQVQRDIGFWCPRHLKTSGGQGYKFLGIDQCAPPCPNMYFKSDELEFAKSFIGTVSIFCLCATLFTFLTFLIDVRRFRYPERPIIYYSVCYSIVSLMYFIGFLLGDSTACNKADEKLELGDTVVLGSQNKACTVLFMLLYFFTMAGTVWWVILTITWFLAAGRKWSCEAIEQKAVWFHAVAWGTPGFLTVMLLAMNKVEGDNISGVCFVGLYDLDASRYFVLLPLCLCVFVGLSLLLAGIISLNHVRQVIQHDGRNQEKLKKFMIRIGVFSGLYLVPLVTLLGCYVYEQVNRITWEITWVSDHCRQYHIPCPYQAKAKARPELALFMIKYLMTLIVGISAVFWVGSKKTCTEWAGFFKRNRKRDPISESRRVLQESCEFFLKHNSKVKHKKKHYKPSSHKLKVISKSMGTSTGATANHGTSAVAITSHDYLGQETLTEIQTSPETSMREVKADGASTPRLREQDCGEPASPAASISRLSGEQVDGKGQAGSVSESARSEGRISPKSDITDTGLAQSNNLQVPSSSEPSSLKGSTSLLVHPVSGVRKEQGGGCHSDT
Kind of assay: BRET Venus-mGsi recruitment to receptor-Nluc in deltaSMO HEK293A cells. As to conditions: agonist; bell-shaped concentration response; read 5 min after addition.

Assay [2] deals with T2, SMO (HiBiT-SMO; SMO-Nluc) (Mus musculus, UniProt P56726, F466P).
T2 construct: full-length receptor; C-terminal Nluc (SMO-Nluc) for miniGsi recruitment; expressed in deltaSMO HEK293A cells
Kind of assay: NanoBiT/BRET saturation binding in live cells. The following applies: HBSS, 90 min, 37 °C; cell-surface receptor; labelled compound; error SD.

Assay [3] addresses T1, FZD6 (HiBiT-FZD6; FZD6-Nluc). Kind of assay: NanoBiT/BRET saturation binding in live cells. As to conditions: HBSS, 90 min, 37 °C; cell-surface receptor; upper 7TM site; labelled compound; error SD.
For assay [4], the target named is T3, FZD6 (HiBiT-FZD6; FZD6-Nluc) (Homo sapiens, UniProt O60353, P427F).
T3 construct: full-length receptor; expressed in deltaSMO HEK293A cells; UniProt id given for the homology model
T3 sequence (O60353 19-706 P427F): T1 sequence (O60353 19-706) with P409F
Kind of assay: NanoBiT/BRET saturation binding in live cells. The following applies: HBSS, 90 min, 37 °C; cell-surface receptor; upper 7TM site; labelled compound; error SD.

The target of assay [5] is T4, SMO (HiBiT-SMO; SMO-Nluc) (Mus musculus, UniProt P56726).
T4 construct: full-length receptor; C-terminal Nluc (SMO-Nluc) for miniGsi recruitment; expressed in deltaSMO HEK293A cells
Kind of assay: NanoBiT/BRET saturation binding in live cells. The following applies: HBSS, 90 min, 37 °C; cell-surface receptor; monophasic, lower 7TM site; labelled compound; error SD.

T2 sequence (P56726 33-793 F466P): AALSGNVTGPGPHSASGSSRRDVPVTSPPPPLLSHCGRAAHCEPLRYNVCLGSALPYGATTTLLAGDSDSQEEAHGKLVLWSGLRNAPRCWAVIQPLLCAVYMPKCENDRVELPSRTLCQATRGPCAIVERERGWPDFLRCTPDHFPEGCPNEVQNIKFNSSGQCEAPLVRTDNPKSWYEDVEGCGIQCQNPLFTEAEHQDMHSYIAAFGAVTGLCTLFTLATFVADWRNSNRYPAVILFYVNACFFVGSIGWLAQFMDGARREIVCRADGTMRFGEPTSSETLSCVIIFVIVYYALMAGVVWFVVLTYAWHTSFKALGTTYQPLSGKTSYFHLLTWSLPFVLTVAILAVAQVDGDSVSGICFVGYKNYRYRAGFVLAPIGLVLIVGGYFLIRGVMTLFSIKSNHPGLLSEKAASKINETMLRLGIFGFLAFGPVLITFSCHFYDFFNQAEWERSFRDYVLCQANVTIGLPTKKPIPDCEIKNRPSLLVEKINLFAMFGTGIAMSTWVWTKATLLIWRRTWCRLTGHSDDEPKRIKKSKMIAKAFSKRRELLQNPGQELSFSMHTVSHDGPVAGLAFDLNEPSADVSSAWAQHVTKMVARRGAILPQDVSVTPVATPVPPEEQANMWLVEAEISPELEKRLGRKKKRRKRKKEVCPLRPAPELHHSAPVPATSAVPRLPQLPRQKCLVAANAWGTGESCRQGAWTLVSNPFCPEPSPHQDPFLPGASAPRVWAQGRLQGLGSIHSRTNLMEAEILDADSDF
T4 sequence (P56726 33-793): as the sequence (P56726 33-793 F466P) above, with P434F counted along it

`CN[C@H]1CC[C@H](N(Cc2cccc(-c3ccncc3)c2)C(=O)c2sc3ccccc3c2Cl)CC1` [SAG1.3]: the “BRET Venus-mGsi recruitment to receptor-Nluc in deltaSMO HEK293A cells” value in assay [1] was “SAG1.3-induced mGsi recruitment to SMO, while that to FZD6 remained unaffected”.

On to `CC1=C2CC3C(CC=C4C[C@@H](O)CCC43C)C2CCC12O[C@@H]1CC(C)CN(CCNC(=O)CCCCCNC(=O)CCC3=[N+]4C(=Cc5c(C)cc(C)n5[B-]4(F)F)C=C3)C1C2C` (some centres unmarked) [BODIPY-cyclopamine], for which the pKd in assay [2] is on record as 5.44 ± 1.02 -log10 M; in assay [3] it was 6.45 ± 0.23 -log10 M; in assay [4], 6.28 ± 0.20 -log10 M; in assay [5] it was 6.87 ± 0.13 -log10 M.
